{"source": "patent US10537541B2", "about": "“Treatment of focal segmental glomerular sclerosis (FSGS) using therapeutically effective oral doses of 10-nitro-9(E)-octadec-9-enoic acid” (Complexa, Inc., priority 2015, dated 2020)", "key": {"[1]": {"system": "deoxycorticosterone acetate (DOCA)/salt-induced model of FSGS", "assay": "DOCA/salt-induced mouse model of FSGS: renoprotection, body weight, blood pressure, organ/body weight ratios", "type": "in vivo, mice (129/sv strain)", "conditions": "DOCA/salt mice, 4 weeks", "protocol": "10-nitro-9(E)-octadec-9-enoic acid, given orally after onset of renal injury, was evaluated for efficacy in a model for Focal Segmental Glomerular Sclerosis (FSGS) in humans. […] Mice were uni-nephrectomized and, after two weeks, implanted subcutaneously with DOCA (50 mg, 21-day release) or placebo sustained release pellets, with pellet replacement 3 weeks later. All groups, except the sham control group, also received 1% NaCl in tap water. 10-nitro-9(E)-octadec-9-enoic acid (daily oral gavage, 2.5 or 12.5 mg/kg) or enalapril (20 mg/kg/day in drinking water) treatments began 2 weeks after the first DOCA implantation and continued for 4 weeks. Enalapril was included for comparison because it is used as standard of care for FSGS and this is a positive control for the model.\n(§1) Induction of model: Male mice (129/sv strain) were purchased from Taconic Labs. The animals were uninephrectomized (Unx) at 6 weeks of age by the vendor and shipped one week after surgery. At 2 weeks post Unx, a DOCA or placebo pellet (21-day release pellets, 50 mg/pellet, Innovative Research of America, Sarasota, Fla.) was implanted s.c. All mice were then placed on a semisynthetic diet which contained a moderate fat content and a low phytoestrogen/anti-oxidant level, which approximates a normal human diet (4). A second DOCA or placebo pellet was implanted three weeks later.\n(§2) Treatment: Mice were treated with placebo, 10-nitro-9(E)-octadec-9-enoic acid at a dose of 2.5 and 12.5 mg/kg, or enalapril (standard of care) for 4 weeks by oral gavage starting 2 weeks after the first DOCA implantation. One percent NaCl in tap water was given to each group except the sham control group. Body weight was measured weekly, and doses were readjusted based on the current body weight. Urine and blood samples were collected prior to treatment and at week 2 and 4 of treatment. Mice were terminated at week 4. Data is presented as the mean+SEM for the number of animals listed in each group."}, "[2]": {"system": "deoxycorticosterone acetate (DOCA)/salt-induced model of FSGS", "assay": "DOCA salt study: serum and urine analyses", "type": "in vivo, mice (129/sv strain)", "conditions": "DOCA/salt mice, enalapril 20 mg/kg/d in drinking water", "protocol": "Induction of model: Male mice (129/sv strain) were purchased from Taconic Labs. The animals were uninephrectomized (Unx) at 6 weeks of age by the vendor and shipped one week after surgery. At 2 weeks post Unx, a DOCA or placebo pellet (21-day release pellets, 50 mg/pellet, Innovative Research of America, Sarasota, Fla.) was implanted s.c. All mice were then placed on a semisynthetic diet which contained a moderate fat content and a low phytoestrogen/anti-oxidant level, which approximates a normal human diet (4). A second DOCA or placebo pellet was implanted three weeks later. […] One percent NaCl in tap water was given to each group except the sham control group. Body weight was measured weekly, and doses were readjusted based on the current body weight. Urine and blood samples were collected prior to treatment and at week 2 and 4 of treatment. Mice were terminated at week 4. Data is presented as the mean+SEM for the number of animals listed in each group. Serum and urine analyses: Blood samples were collected from the retro-orbital sinus and samples were separated to serum. Serum and urine creatinine (enzymatic assay), blood urea nitrogen (BUN), and serum cholesterol were measured using a Cobas 400 plus bioanalyzer (Roche Diagnostics, IN). Urine samples were collected for 24 h using metabolic cages. Urine albumin was measured by immunoassay Albuwell M (Exocell Inc., Philadelphia, Pa.). Immuno-ELISA according to manufacturer's instructions was used to measure urine nephrin (Exocell Inc., Philadelphia, Pa.) and MCP-1 (Thermal Scientific, Waltham, Mass.). Kim-1 was measured using the E-90KIM Mouse ELISA Kit (Immunology Consultants Laboratory, Portland, Oreg.). Statistical analyses for serum and urine data was performed using a two-tailed Student's t-test."}, "[3]": {"system": "deoxycorticosterone acetate (DOCA)/salt-induced model of FSGS", "assay": "DOCA salt study: glomerular filtration rate (inulin)", "type": "in vivo, mice (129/sv strain)", "conditions": "DOCA/salt mice; enalapril 20 mg/kg/d in drinking water, 4 week timepoint", "protocol": "Induction of model: Male mice (129/sv strain) were purchased from Taconic Labs. The animals were uninephrectomized (Unx) at 6 weeks of age by the vendor and shipped one week after surgery. At 2 weeks post Unx, a DOCA or placebo pellet (21-day release pellets, 50 mg/pellet, Innovative Research of America, Sarasota, Fla.) was implanted s.c. All mice were then placed on a semisynthetic diet which contained a moderate fat content and a low phytoestrogen/anti-oxidant level, which approximates a normal human diet (4). A second DOCA or placebo pellet was implanted three weeks later. […] One percent NaCl in tap water was given to each group except the sham control group. Body weight was measured weekly, and doses were readjusted based on the current body weight. Urine and blood samples were collected prior to treatment and at week 2 and 4 of treatment. Mice were terminated at week 4. Data is presented as the mean+SEM for the number of animals listed in each group. Glomerular Filtration Rate: Glomerular filtration rate (GFR) was performed at the 4 week timepoint using a FIT-GFR test kit for inulin according to manufacturer's instructions (BioPal, Worcester, Mass.). […] Serum was isolated and quantified by an inulin ELISA. Inulin serum clearance was determined by nonlinear regression using a one phase exponential decay formula according to manufacturer's instructions."}, "[4]": {"system": "deoxycorticosterone acetate (DOCA)/salt-induced model of FSGS", "assay": "DOCA salt study: histological assessment of kidney", "type": "in vivo, mice (129/sv strain)", "conditions": "DOCA/salt mice; enalapril 20 mg/kg/d in drinking water, 4 weeks", "protocol": "as §1, §2\nHistological Assessment: Formalin fixed, paraffin embedded kidneys were sectioned at 3 microns and stained with hematoxylin and eosin (H&E), periodic acid-Schiff (PAS) and Masson's Trichrome for histological analysis. Slides were blindly evaluated by an experienced pathology investigator. Glomerular and tubular pathology, interstitial inflammation and interstitial fibrosis were semi-quantitatively scored on a scale of 0-4 as follows: 0=normal; 1=mild; 2=moderate; 3=marked; 4=severe.\nGlomerular hypertrophy was evaluated by measuring glomerular area and expressed as a mean value of 50 glomeruli per kidney. Glomerular hypertrophy is an important marker for diabetic and hypertensive-mediated chronic kidney disease. […] This finding is consistent with unchanged gene expression profile for podocyte markers (Table 2), and seems reasonable given that the disease was relatively modest."}, "[5]": {"system": "deoxycorticosterone acetate (DOCA)/salt-induced model of FSGS", "assay": "DOCA salt study: RT-PCR analysis of kidney gene expression", "type": "in vivo, mice (129/sv strain)", "conditions": "DOCA/salt mice kidney", "protocol": "as §1, §2\nRT-PCR Analysis of Gene Expression: A slice of kidney from each mouse was placed in Trizol solution (Invitrogen) immediately after harvesting and stored at −80° C. until analysis. Tissues were homogenized using a bead mill in 0.5 ml of Trizol solution and total RNA was extracted with chloroform (Sigma) and purified using standard RNeasy mini kit (Qiagen), with on column DNase 1 (Qiagen) digestion to avoid non-specific fluorescence emission derived from the recognition of contaminating genomic DNA by the probe, according to manufacturer's recommendation. RNA samples were eluted in 30 μl of nuclease-free water and quantified using a Nanodrop. cDNA was generated from 2 μg of RNA by using Clontech Sprint PowerScript reagents according to manufacturer's protocol. Fluorogenic probes specific for genes assayed in the report were purchased from Applied Biosystems. PCR amplification and analysis of PCR reaction were performed and monitored using an ABI Prism 7900HT Sequence Detection System (TaqMan, Perkin-Elmer Applied Biosystem). Data analysis was carried out by using the Sequence Detection Systems v2.3 program (Applied Biosystems). For each cDNA sample the Ct value of each target sequence was normalized to reference gene (Ribosomal RNA-18S), and shown as fold changes to control group. Statistical analyses for gene expression data was performed using a two-tailed Student's t-test."}, "[6]": {"system": "deoxycorticosterone acetate (DOCA)/salt-induced model of FSGS", "assay": "DOCA salt study: urinary isoprostane and tetranor-PGDM by LC-MS", "type": "in vivo, mice (129/sv strain)", "conditions": "DOCA/salt mice; end time point", "protocol": "as §1, §2\nIsoprostanes are a unique series of prostaglandin-like compounds formed in vivo via a non-enzymatic mechanism involving the free radical-initiated peroxidation of arachidonic acid. It has been shown that 8-iso-PGF2a (15-F2t-isoprostane) is the isoprostane that correlates best with increasing oxidative stress. Therefore, to assess the effect of treatment on oxidative stress, this isoform was measured using LC-MS. Also measured was tetranor-PGDM, a urinary metabolite of prostaglandin D2. […] On the other hand, elevated tetranor-PGDM was lowered with treatment of 10-nitro-9(E)-octadec-9-enoic acid and enalapril at the end time point (FIG. 18)."}, "[7]": {"assay": "Pharmacokinetic interaction study with pravastatin and Vytorin in healthy males: PK", "conditions": "Vytorin 10 mg/20 mg, Day 12 with 10-nitro-9(E)-octadec-9-enoic acid 150 mg daily versus Day 2 alone"}, "healthy male subjects": {"system": "healthy male subjects", "assay": "Pharmacokinetic interaction study in healthy males: safety and tolerability", "type": "in vivo, human", "conditions": "pravastatin 40 mg, 10 healthy males", "protocol": "Safety and tolerability was evaluated throughout the study. The timing of discharge was determined by the Investigator or designee based on safety and tolerability assessment. On dosing days, subjects remained in the research unit for a minimum of 1 h after dosing prior to discharge. On Day 4, on the first day of 10-nitro-9(E)-octadec-9-enoic acid dosing, subjects remained in the unit for 4 to 6 h after dosing prior to discharge to assess safety and tolerability.\nSafety and PK assessments were evaluated throughout the study. During the in-house portion of the study, urine was collected over the 24-h period on Day 2 and Day 12.\nSafety was evaluated by physical examinations; adverse events (AEs); vital signs (blood pressure, heart rate, respiratory rate); clinical laboratory values (hematology, biochemistry, and urinalysis), specifically, serum Mg and CPK and electrocardiograms (ECGs).\nTriplicate ECGs were obtained just prior to the start of dosing on Day 1 and single ECGs were obtained at all other time points. The average of the 3 ECG interval measurements at the pre-dose time point was considered as baseline. All 12-Lead ECGs were obtained after the subject has rested in a fully supine position for at least 10 minutes. There were no clinically significant abnormalities reported on any electrocardiogram (ECG) parameter. There were no QT/QTcF interval prolongations observed during the study."}, "[8]": {"conditions": "enalapril 20 mg/kg/d, normalized to 18S, fold changes to control group, mean ± SEM"}}, "data": [{"smiles": "CCOC(=O)[C@H](CCc1ccccc1)N[C@@H](C)C(=O)N1CCC[C@H]1C(=O)O", "note": "[Enalapril, reference compound]", "values": [{"measurement": "blood pressure (mean arterial)", "setting": "[1]; all treatments", "value": "none of the treatments, including enalapril, had a significant effect"}, {"measurement": "kidney/body weight and heart/body ratios", "setting": "[1]; enalapril 20 mg/kg/d in drinking water", "value": "no effect"}, {"measurement": "Kim-1 in urine, relative to the DOCA group", "setting": "[2]", "value": "trended to be decreased"}, {"measurement": "albumin excretion", "setting": "[2]; 4 weeks", "value": "markedly reduced"}, {"measurement": "plasma cholesterol", "setting": "[2]; 4 weeks", "value": "reduced"}, {"measurement": "urinary nephrin levels", "setting": "[2]; 4 weeks", "value": "markedly reduced"}, {"measurement": "GFR (inulin method)", "setting": "[3]", "value": "trend toward an increase"}, {"measurement": "glomerular hypertrophy (glomerular area, mean of 50 glomeruli per kidney)", "setting": "[4]", "value": "did not have an effect"}, {"measurement": "glomerulosclerosis: average scores and percent of glomerular damage (sclerosis)", "setting": "[4]", "value": "not significantly reduced"}, {"measurement": "gene expression of MCP-1, osteopontin, collagen III, fibronectin and PAI-1 (mRNA, qRT-PCR)", "setting": "[5]; enalapril 20 mg/kg/d in drinking water, 4 weeks", "value": "neither the high dose 10-nitro-9(E)-octadec-9-enoic acid nor enalapril had an effect"}, {"measurement": "Nephrin gene expression", "setting": "[5]; [8]", "value": "1.091 ± 0.14"}, {"measurement": "Podocin gene expression", "setting": "[5]; [8]", "value": "0.9991 ± 0.095"}, {"measurement": "urinary tetranor-PGDM", "setting": "[6]", "value": "lowered"}]}, {"smiles": "O=C1[C@H](CC[C@H](O)c2ccc(F)cc2)[C@@H](c2ccc(O)cc2)N1c1ccc(F)cc1", "note": "[ezetimibe]", "values": [{"measurement": "decrease of mean AUC(0-t) on co-administration", "setting": "[7]", "value": 5, "unit": "%"}, {"measurement": "decrease of mean Cmax on co-administration", "setting": "[7]", "value": 20, "unit": "%"}]}, {"smiles": "CC[C@H](C)C(=O)O[C@H]1C[C@H](O)C=C2C=C[C@H](C)[C@H](CC[C@@H](O)C[C@@H](O)CC(=O)O)[C@H]21", "note": "[pravastatin, reference compound]", "values": [{"measurement": "subjects with abdominal discomfort after administration", "setting": "healthy male subjects", "value": 1, "unit": "subject"}]}, {"smiles": "CCC(C)(C)C(=O)O[C@H]1C[C@@H](C)C=C2C=C[C@H](C)[C@H](CC[C@@H]3C[C@@H](O)CC(=O)O3)[C@H]21", "note": "[simvastatin]", "values": [{"measurement": "increase of mean AUC(0-t) on co-administration", "setting": "[7]", "value": 25, "unit": "%"}, {"measurement": "increase of mean Cmax on co-administration", "setting": "[7]", "value": 10, "unit": "%"}]}]}
